In patent US8907089B2, “Fused heterocyclic ring derivative and use thereof” (Takeda Pharmaceutical Company Limited, priority 2009, dated 2014):

System: mouse medulloblastoma (Patched 1(+/-), p53(-/-)) subcutaneously transplanted into nude mouse
Assay: In vivo anti-tumor test, mouse medulloblastoma allogeneic transplantation model
Details: 1 mg/kg, orally twice a day for 2 weeks, 0.5% methylcellulose suspension; nude mouse with subcutaneous medulloblastoma; at the end of the test; p < 0.025 (Dunnett's test)
Procedure: According to the description in Sasaki, K. et al., (2006) Cancer Res. 66: 4215-4222, an anti-tumor effect of a compound was evaluated using a mouse medulloblastoma allogeneic transplantation model. To be precise, Patched 1 gene mutant mouse (lineage name: Ptch1tm1Mps/J) was purchased from The Jackson Laboratory and p53 gene mutant mouse (lineage name: P53N4-M, Nomenclature: B6.129-Trp53tm/BrdN4) was purchased from Taconic, and a mouse of Patched 1(+/−), p53(−/−) phenotype was prepared by mating. […]
An anti-tumor test was performed using a tumor passaged by subcutaneous transplantation. […] The tumor diameter after transplantation was measured and, when the tumor size reached 150-250 mm^3, the anti-tumor test was started using 5 mice per group.
The test compound was prepared to achieve a dose of 1 mg/kg with a 0.5% methylcellulose (Shin-Etsu Chemical Co. Ltd., Cat. No. SM-100) suspension, and orally administered twice a day for 2 weeks. The tumor size was calculated based on the longer diameter and shorter diameter of the tumor measured with an electron vernier caliper. After the start of the test, the tumor size was measured every 2 or 3 days and the growth rate of the tumor size was calculated. […]

Row | Structure (SMILES) | T/C (%) growth rate of the tumor size [%]
1 | CCc1cc2c(c(OCC(F)(F)F)c(C(=O)NC3CCN(C(=O)CO)CC3)n2C)c(=O)n1-c1ccc(F)cc1 [Example 5, 6-ethyl-5-(4-fluorophenyl)-N-[1-(hydroxyacetyl)piperidin-4-yl]-1-methyl-4-oxo-3-(2,2,2-trifluoroethoxy)-4,5-dihydro-1H-pyrrolo[3,2-c]pyridine-2-carboxamide] | 42
2 | CCc1cc2c(c(OC(C)C)c(C(=O)NC3CCN(C(=O)CO)CC3)n2C)c(=O)n1-c1ccc(F)cc1 [Example 7, 6-ethyl-5-(4-fluorophenyl)-N-[1-(hydroxyacetyl)piperidin-4-yl]-1-methyl-3-(1-methylethoxy)-4-oxo-4,5-dihydro-1H-pyrrolo[3,2-c]pyridine-2-carboxamide] | 40
